The record followed here is patent publication US12065442B2, “Tropomyosin receptor kinase (TRK) degradation compounds and methods of use” (Cullgen (Shanghai), Inc., priority 2018, dated 2024).

For orientation: IC50 means the concentration that gives 50% inhibition.

The structures appear in SMILES notation.

The test system of one test is KM12 cells. The test can be described thus: Cell viability assay (CellTiter-Glo) in KM12 cells. Format: cell-based. Conditions: Homo sapiens, 72 h; Table 2; KM12 cell viability, CellTiter-Glo, 3 days; read-out: IC50. On the technique in general: Cellular ATP, detected with luciferase, serves as a proxy for viable cell number.
As to `Cc1ncsc1-c1ccc(CNC(=O)[C@@H]2C[C@@H](O)CN2C(=O)[C@@H](NC(=O)CCC(=O)N2CCN(c3ccc(C(=O)Nc4n[nH]c5ccc(Cc6cc(F)cc(F)c6)cc45)c(NC4CCOCC4)c3)CC2)C(C)(C)C)cc1` [CPD-046, (2S,4R)-1-((S)-2-(4-(4-(4-((5-(3,5-Difluorobenzyl)-1H-indazol-3-yl)carbamoyl)-3-((tetrahydro-2H-pyran-4-yl)amino)phenyl)piperazin-1-yl)-4-oxobutanamido)-3,3-dimethylbutanoyl)-4-hydroxy-N-(4-(4-methylthiazol-5-yl)benzyl)pyrrolidine-2-carboxamide], the IC50 is 700 nM.

Consider `O=C1CCC(N2C(=O)c3cccc(NCCOCCOCCOCCOCCC(=O)N4CCN(c5ccc(C(=O)Nc6n[nH]c7ccc(Cc8cc(F)cc(F)c8)cc67)c(NC6CCOCC6)c5)CC4)c3C2=O)C(=O)N1` (stereo not shown) [CPD-031, N-(5-(3,5-Difluorobenzyl)-1H-indazol-3-yl)-4-(4-(1-((2-(2,6-dioxopiperidin-3-yl)-1,3-dioxoisoindolin-4-yl)amino)-3,6,9,12-tetraoxapentadecan-15-oyl)piperazin-1-yl)-2-((tetrahydro-2H-pyran-4-yl)amino)benzamide], for which the half-inhibitory concentration (IC50) was 68.5 nM.

For the compound `O=C1CCC(N2C(=O)c3cccc(NCCCCCCCC(=O)N4CCN(c5cccc(-c6cnc7ccc(N8CCC[C@@H]8c8cccc(F)c8)nn67)n5)CC4)c3C2=O)C(=O)N1` (stereo partly drawn) [CPD-024, 2-(2,6-Dioxopiperidin-3-yl)-4-((8-(4-(6-(6-((R)-2-(3-fluorophenyl)pyrrolidin-1-yl)imidazo[1,2-b]pyridazin-3-yl)pyridin-2-yl)piperazin-1-yl)-8-oxooctyl)amino)isoindoline-1,3-dione], the IC50 is 10 nM.

For the compound `Cc1ncsc1-c1ccc(CNC(=O)[C@@H]2C[C@@H](O)CN2C(=O)[C@@H](NC(=O)COCCOCC(=O)N2CCN(c3ccc(C(=O)Nc4n[nH]c5ccc(Cc6cc(F)cc(F)c6)cc45)c(NC4CCOCC4)c3)CC2)C(C)(C)C)cc1` [CPD-042, (2S,4R)-1-((S)-2-(2-(2-(2-(4-(4-((5-(3,5-Difluorobenzyl)-1H-indazol-3-yl)carbamoyl)-3-((tetrahydro-2H-pyran-4-yl)amino)phenyl)piperazin-1-yl)-2-oxoethoxy)ethoxy)acetamido)-3,3-dimethylbutanoyl)-4-hydroxy-N-(4-(4-methylthiazol-5-yl)benzyl)pyrrolidine-2-carboxamide], the IC50 is greater than 1000 nM.

With `O=C(CN1CCN(c2cccc(-c3cnc4ccc(N5CCC[C@@H]5c5cccc(F)c5)nn34)n2)CC1)NCCOCCOCCOCCNc1cccc2c1C(=O)N(C1CCC(=O)NC1=O)C2=O` (stereo partly drawn) [CPD-059, N-(2-(2-(2-(2-((2-(2,6-dioxopiperidin-3-yl)-1,3-dioxoisoindolin-4-yl)amino)ethoxy)ethoxy)-ethoxy)ethyl)-2-(4-(6-(6-((R)-2-(3-fluorophenyl)pyrrolidin-1-yl)imidazo[1,2-b]pyridazin-3-yl)pyridin-2-yl)piperazin-1-yl)acetamide], the IC50 turned out to be 6 nM.

Consider `Cc1ncsc1-c1ccc(CNC(=O)[C@@H]2C[C@@H](O)CN2C(=O)[C@@H](NC(=O)CCC(=O)N2CCN(c3cccc(-c4cnc5ccc(N6CCC[C@@H]6c6cccc(F)c6)nn45)n3)CC2)C(C)(C)C)cc1` [CPD-006, (2S,4R)-1-((S)-2-(4-(4-(6-(6-((R)-2-(3-Fluorophenyl)pyrrolidin-1-yl)imidazo[1,2-b]pyridazin-3-yl)pyridin-2-yl)piperazin-1-yl)-4-oxobutanamido)-3,3-dimethylbutanoyl)-4-hydroxy-N-(4-(4-methylthiazol-5-yl)benzyl)pyrrolidine-2-carboxamide], for which the IC50 stood at 500 nM.

Staying with this test, now noted: Homo sapiens, 72 h; Table 3; KM12 cell viability, CellTiter-Glo, 3 days; read-out: IC50.
`O=C(CN1CCN(c2cccc(-c3cnc4ccc(N5CCC[C@@H]5c5cccc(F)c5)nn34)n2)CC1)NCCOCCOCCOCCOCCNc1ccc2c(c1)C(=O)N(C1CCC(=O)NC1=O)C2=O` (stereo partly drawn) [TR-125, N-(14-((2-(2,6-dioxopiperidin-3-yl)-1,3-dioxoisoindolin-5-yl)amino)-3,6,9,12-tetraoxatetradecyl)-2-(4-(6-(6-((R)-2-(3-fluorophenyl)pyrrolidin-1-yl)imidazo[1,2-b]pyridazin-3-yl)pyridin-2-yl)piperazin-1-yl)acetamide]: the IC50 came to 2.8 nM.

Consider `O=C1CCC(N2C(=O)c3ccc(NCCCCCCCC(=O)N4CCN(c5cccc(-c6cnc7ccc(N8CCC[C@@H]8c8cccc(F)c8)nn67)n5)CC4)cc3C2=O)C(=O)N1` (stereo partly drawn) [TR-118, 2-(2,6-Dioxopiperidin-3-yl)-5-((8-(4-(6-(6-((R)-2-(3-fluorophenyl)pyrrolidin-1-yl)imidazo[1,2-b]pyridazin-3-yl)pyridin-2-yl)piperazin-1-yl)-8-oxooctyl)amino)isoindoline-1,3-dione], for which the IC50 turned out to be 6.3 nM.

As for `O=C1CCC(N2Cc3ccc(CCCN4CCN(c5cccc(-c6cnc7ccc(N8CCC[C@@H]8c8cccc(F)c8)nn67)n5)CC4)cc3C2=O)C(=O)N1` (stereo partly drawn) [TR-185, 3-(6-(3-(4-(6-(6-((R)-2-(3-fluorophenyl)pyrrolidin-1-yl)imidazo[1,2-b]pyridazin-3-yl)pyridin-2-yl)piperazin-1-yl)propyl)-1-oxoisoindolin-2-yl)piperidine-2,6-dione], the IC50 came out at 17.1 nM.

Take `O=C(CN1CCN(c2cccc(-c3cnc4ccc(N5CCC[C@@H]5c5cccc(F)c5)nn34)n2)CC1)NCCOCCNc1cccc2c1C(=O)N(C1CCC(=O)NC1=O)C2=O` (stereo partly drawn) [TR-106, N-(2-(2-((2-(2,6-dioxopiperidin-3-yl)-1,3-dioxoisoindolin-4-yl)amino)ethoxy)ethyl)-2-(4-(6-(6-((R)-2-(3-fluorophenyl)pyrrolidin-1-yl)imidazo[1,2-b]pyridazin-3-yl)pyridin-2-yl)piperazin-1-yl)acetamide]: the IC50 amounted to 3.8 nM.

Regarding `O=C(CN1CCN(c2ccc(C(=O)Nc3n[nH]c4ccc(Cc5cc(F)cc(F)c5)cc34)c(NC3CCOCC3)c2)CC1)NCCCCNc1cccc2c1C(=O)N(C1CCC(=O)NC1=O)C2=O` (stereo not shown) [TR-155, N-(5-(3,5-Difluorobenzyl)-1H-indazol-3-yl)-4-(4-(2-((4-((2-(2,6-dioxopiperidin-3-yl)-1,3-dioxoisoindolin-4-yl)amino)butyl)amino)-2-oxoethyl)piperazin-1-yl)-2-((tetrahydro-2H-pyran-4-yl)amino)benzamide], the IC50 worked out at 2.9 nM.

In the case of `O=C(CN1CCN(c2ccc(C(=O)Nc3n[nH]c4ccc(Cc5cc(F)cc(F)c5)cc34)c(NC3CCOCC3)c2)CC1)NCCCCCCCCNc1ccc2c(c1)C(=O)N(C1CCC(=O)NC1=O)C2=O` (stereo not shown) [TR-159, N-(5-(3,5-Difluorobenzyl)-1H-indazol-3-yl)-4-(4-(2-((8-((2-(2,6-dioxopiperidin-3-yl)-1,3-dioxoisoindolin-5-yl)amino)octyl)amino)-2-oxoethyl)piperazin-1-yl)-2-((tetrahydro-2H-pyran-4-yl)amino)benzamide], the IC50 is 30.4 nM.

For the compound `O=C1CCC(N2Cc3cc(NCCN4CCN(c5cccc(-c6cnc7ccc(N8CCC[C@@H]8c8cccc(F)c8)nn67)n5)CC4)ccc3C2=O)C(=O)N1` (stereo partly drawn) [TR-191, 3-(5-((2-(4-(6-(6-((R)-2-(3-fluorophenyl)pyrrolidin-1-yl)imidazo[1,2-b]pyridazin-3-yl)pyridin-2-yl)piperazin-1-yl)ethyl)amino)-1-oxoisoindolin-2-yl)piperidine-2,6-dione], the IC50 stood at 5.4 nM.

For `O=C1CCC(N2C(=O)c3ccc(CN4CCN(c5cccc(-c6cnc7ccc(N8CCC[C@@H]8c8cccc(F)c8)nn67)n5)CC4)cc3C2=O)C(=O)N1` (stereo partly drawn) [TR-197, 2-(2,6-Dioxopiperidin-3-yl)-5-((4-(6-(6-((R)-2-(3-fluorophenyl)pyrrolidin-1-yl)imidazo[1,2-b]pyridazin-3-yl)pyridin-2-yl)piperazin-1-yl)methyl)isoindoline-1,3-dione], the concentration for half-maximal inhibition (IC50) was 67.1 nM.

Turning to `O=C(CN1CCN(c2ccc(C(=O)Nc3n[nH]c4ccc(Cc5cc(F)cc(F)c5)cc34)c(NC3CCOCC3)c2)CC1)NCCCCCCCNc1cccc2c1C(=O)N(C1CCC(=O)NC1=O)C2=O` (stereo not shown) [TR-154, N-(5-(3,5-Difluorobenzyl)-1H-indazol-3-yl)-4-(4-(2-((7-((2-(2,6-dioxopiperidin-3-yl)-1,3-dioxoisoindolin-4-yl)amino)heptyl)amino)-2-oxoethyl)piperazin-1-yl)-2-((tetrahydro-2H-pyran-4-yl)amino)benzamide], the IC50 worked out at 20.8 nM.

Take `O=C1CCC(N2Cc3ccc(OCCN4CCN(c5cccc(-c6cnc7ccc(N8CCC[C@@H]8c8cccc(F)c8)nn67)n5)CC4)cc3C2=O)C(=O)N1` (stereo partly drawn) [TR-201, 3-(6-(2-(4-(6-(6-((R)-2-(3-fluorophenyl)pyrrolidin-1-yl)imidazo[1,2-b]pyridazin-3-yl)pyridin-2-yl)piperazin-1-yl)ethoxy)-1-oxoisoindolin-2-yl)piperidine-2,6-dione]: the IC50 was greater than 500 nM.

Turning to `O=C1CCC(N2Cc3cc(NCC(=O)N4CCN(c5cccc(-c6cnc7ccc(N8CCC[C@@H]8c8cccc(F)c8)nn67)n5)CC4)ccc3C2=O)C(=O)N1` (stereo partly drawn) [TR-190, 3-(5-((2-(4-(6-(6-((R)-2-(3-fluorophenyl)pyrrolidin-1-yl)imidazo[1,2-b]pyridazin-3-yl)pyridin-2-yl)piperazin-1-yl)-2-oxoethyl)amino)-1-oxoisoindolin-2-yl)piperidine-2,6-dione], the IC50 amounted to 3.6 nM.

Staying with this test, now noted: Homo sapiens, 72 h; Table 4; KM12 cell viability, CellTiter-Glo, 3 days; read-out: IC50.
`Cn1c(=O)n(C2CCC(=O)NC2=O)c2cccc(OCCCN3CCN(c4cccc(-c5cnc6ccc(N7CCC[C@@H]7c7cccc(F)c7)nn56)n4)CC3)c21` (stereo partly drawn) [TR-245, 3-(4-(3-(4-(6-(6-((R)-2-(3-fluorophenyl)pyrrolidin-1-yl)imidazo[1,2-b]pyridazin-3-yl)pyridin-2-yl)piperazin-1-yl)propoxy)-3-methyl-2-oxo-2,3-dihydro-1H-benzo[d]imidazol-1-yl)piperidine-2,6-dione]: the 50% inhibitory concentration (IC50) is greater than 500 nM.

For the compound `O=C1CCC(n2c(=O)n(CCN3CCN(c4cccc(-c5cnc6ccc(N7CCC[C@@H]7c7cccc(F)c7)nn56)n4)CC3)c3ccccc32)C(=O)N1` (stereo partly drawn) [TR-227, 3-(3-(2-(4-(6-(6-((R)-2-(3-Fluorophenyl)pyrrolidin-1-yl)imidazo[1,2-b]pyridazin-3-yl)pyridin-2-yl)piperazin-1-yl)ethyl)-2-oxo-2,3-dihydro-1H-benzo[d]imidazol-1-yl)piperidine-2,6-dione], the IC50 worked out at 23.6 nM.
